From patent US20250064875A1, “PHARMACEUTICAL COMPOSITION FOR PREVENTING OR TREATING MUSCLE DISEASES” (KOSA BIO INC., priority 2021, published 2025)

Experiments:
[1] = test system: sarcopenia animal model; assay: Sarcopenia animal model, body composition by DXA; format: in vivo, mice; details: for lean body weight / BMC / BMD(g/cm^2) / fat / fat(%) / tissue area(cm^2): DXA; for lean body weight: C57BL/6 mice, dexamethasone 20 mg/kg i.p. daily, extract 300 mg/kg or FL 0.5 mg/kg oral daily; for BMC / BMD(g/cm^2) / fat / fat(%) / tissue area(cm^2): same model and doses
Procedure: Specifically, male C57BL/6 mice (7 weeks old, Samtako Bio Korea, Korea) were acclimatized, and their body weight (g), lean body weight (g), fat mass (g), and body fat percentage (%) were measured using dual-energy X-ray absorptiometry (DXA). […] A control group consisted of untreated 5 mice (normal mice) at day 0 of treatment. On days 7 and 14 of treatment, the mice were scanned using DXA to measure body weight, lean body weight, fat mass, and body fat percentage; the results are presented in FIG. 14 and Tables 2 and 3.

[2] = test system: sarcopenia animal model; assay: Sarcopenia animal model, excised tissue weights; format: in vivo, mice; details: day 14; for Thymus: dexamethasone 20 mg/kg i.p., extract 300 mg/kg or FL 0.5 mg/kg oral daily
Procedure: Specifically, male C57BL/6 mice (7 weeks old, Samtako Bio Korea, Korea) were acclimatized, and their body weight (g), lean body weight (g), fat mass (g), and body fat percentage (%) were measured using dual-energy X-ray absorptiometry (DXA). […] A control group consisted of untreated 5 mice (normal mice) at day 0 of treatment.

[3] = test system: C2C12 myoblast cells differentiated to myotubes; assay: Inhibition of myocyte apoptosis: MTT cell viability in dexamethasone-treated myotubes; format: cell-based; details: 10 μM dexamethasone, FL, FV, FI 2.5-20 μg/mL or amino acid controls, 24 hours, FIGS. 4-6
Procedure: Firstly, C2C12 myoblast cells (from ATCC, USA) were cultured in DMEM supplemented with 10% fetal bovine serum (FBS) and 1% antibiotic-antimycotic at 37° C. under a 5% CO2 atmosphere. Thereafter, the medium was replaced with one containing 2% horse serum (HS) for incubation of additional 72 hours. […] Post-treatment, the cells were observed again under a microscope. The results of the differentiation to myotubes are presented in FIG. 1, and the observations post-dexamethasone treatment in FIG. 2.
After 24 hours, the culture medium was removed, and MTT reagent (5 mg/mL) was added to each well and incubated for 4 hours. Subsequently, DMSO was added to dissolve any precipitates, and the absorbance was read at 570 nm.
Apart from FL, which was found in elderberry extracts, fructose-valine (FV) and fructose-isoleucine (FI) conjugates in which the branched-chain amino acid valine or isoleucine is conjugated to the monosaccharide fructose were also tested for inhibition against myocyte apoptosis. Experiments were conducted in the same manner and conditions as in Experiment Example 1-2, except that FL, FV, or FI was used at concentrations of 2.5, 5, 10, or 20 μg/mL instead of elderberry extracts. As controls, amino acids such as leucine, valine, isoleucine, tryptophan, arginine, tyrosine, glycine, lysine, methionine, phenylalanine, or threonine were used. The cell viability calculated from the treatments with FL, FV, or FI are presented in FIG. 4, and results from amino acid treatments in FIGS. 5 and 6.

[4] = test system: TNFα; assay: Inhibition of TNFα expression (qPCR) in dexamethasone-treated myotubes; format: cell-based; details: cells treated with FL, FV or FI 2.5-20 μg/mL, FIG. 8
Procedure: The cells treated with elderberry extracts as in Experimental Example 1-2 were further treated with trypsin to collect only the cells. After centrifugation of the collected cells at 3,000 rpm for 5 minutes, the supernatant was removed and total RNA was extracted by sequentially treating with RiboEx™ and Hybrid-R™ (GeneAll, Korea). The concentration of the extracted RNA was measured using a Nanodrop, and this RNA was used as a template to synthesize cDNA. The cDNA was synthesized using a mixture of RNA, oligo-(dT) primers, and 2×HyperScript™ RT Master Mix (GeneAll, Korea). Subsequently, real-time PCR (qPCR) was performed using the synthesized cDNA as a template and Power SYBR™ Green PCR Master Mix under standard conditions to confirm the expression of TNFα.
Cells treated with FL, FV, or FI as in Experimental Example 1-3 were trypsinized to collect only the cells, and the level of TNFα expression was examined using the same conditions and methods as described in Experimental Example 2-1.

[5] = test system: TM3 cell line; assay: Promotion of testosterone secretion (ELISA) in H2O2-treated Leydig cells; format: cell-based; details: 500 μM H2O2 6 hours; extract 12.5-100 μg/mL or FL 1.25-10 μg/mL; ELISA of medium; FIG. 9
Procedure: First, the TM3 cell line (from ATCC, USA), which is Leydig cells, were cultured using a standard method. The cultured cells were treated with 500 μM of hydrogen peroxide (H2O2) for 6 hours, followed by the addition of either 12.5, 25, 50, or 100 μg/mL of the hot water extract of elderberry or 1.25, 2.5, 5, or 10 μg/mL of FL (fructose-leucine). Subsequently, ELISA was performed using the cultured cell medium to determine the levels of testosterone, and the results are presented in FIG. 9.

[6] = test system: MuRF-1; assay: Inhibition of muscle protein expression (qPCR): MuRF-1; format: cell-based; details: cells treated with FL, FV or FI 2.5-20 μg/mL
Source text: (§1) The ability of the elderberry extracts and monosaccharide-BCAA conjugate compounds prepared above to inhibit the expression of muscle proteins was confirmed using the qPCR method. Specifically, muscle RING-finger protein-1 (MuRF-1) and atrogin-1, which are both markers of muscle atrophy, and myostatin, which a negative regulator of skeletal muscle mass, were used as target muscle proteins.
(§2) Using the cells treated with the hot water extract, 50% ethanol extract, or 100% ethanol extract of elderberry described in Experimental Example 1-2, qPCR was performed as described above.
(§3) Using the cells treated with FL, FV, or FI as described in Experimental Example 1-3, qPCR was performed as previously outlined.

[7] = test system: atrogin-1; assay: Inhibition of muscle protein expression (qPCR): atrogin-1; format: cell-based; details: cells treated with FL, FV or FI 2.5-20 μg/mL
Source text: as §1, §2, §3

[8] = test system: myostatin; assay: Inhibition of muscle protein expression (qPCR): myostatin; format: cell-based; details: cells treated with FL, FV or FI 2.5-20 μg/mL
Source text: as §1, §2, §3

[9] = excised tissue weight, same model and doses
[10] = result in words, sarcopenia mice, 14 days

SMILES	lean body weight ([1]; Day 0)	BMC ([1]; Day 0)	BMD(g/cm^2) ([1]; Day 0)	fat ([1]; Day 0)	fat(%) ([1]; Day 0)	tissue area(cm^2) ([1]; Day 0)	lean body weight ([1]; Day 7)	BMC ([1]; Day 7)	BMD(g/cm^2) ([1]; Day 7)	fat ([1]; Day 7)	fat(%) ([1]; Day 7)	tissue area(cm^2) ([1]; Day 7)	lean body weight ([1]; Day 14)	BMC ([1]; Day 14)	BMD(g/cm^2) ([1]; Day 14)	cell viability reduced by dexamethasone [3]	level of TNFα expression increased by dexamethasone [4]	mRNA expression level of MuRF-1 increased by dexamethasone [6]	mRNA expression level of atrogin-1 increased by dexamethasone [7]	mRNA expression level of myostatin increased by dexamethasone [8]	also measured
C[C@@H]1C[C@H]2[C@@H]3CCC4=CC(=O)C=C[C@]4(C)[C@@]3(F)[C@@H](O)C[C@]2(C)[C@@]1(O)C(=O)CO [Dexamethasone, dexamethasone, reference compound]	18.93 ± 1.42 g	0.23 ± 0.13 g	0.057 ± 0.012 g/cm^2	1.44 ± 0.16 g	7.1 ± 1.07%	13.32 ± 2.03 cm^2	17.53 ± 1.36 g	0.16 ± 0.02 g	0.052 ± 0.004 g/cm^2	1.13 ± 0.34 g	5.99 ± 1.53%	12.41 ± 1.31 cm^2	17.47 ± 0.29 g	0.16 ± 0.01 g	0.057 ± 0.004 g/cm^2	–	–	–	–	–	fat ([1]; Day 14): 1.56 ± 0.34 g; fat(%) ([1]; Day 14): 8.17 ± 1.58%; tissue area(cm^2) ([1]; Day 14): 13.97 ± 0.51 cm^2; Thymus ([2]; excised tissue weight): 0.009 ± 0.004 g; Muscle [2, 9]: 0.501 ± 0.064 g; Spleen [2, 9]: 0.026 ± 0.01 g
CC(C)CC(NCC1(O)OCC(O)C(O)C1O)C(=O)O (stereo not drawn) [FL, fructose-leucine]	18.31 ± 1.43 g	0.19 ± 0.04 g	0.053 ± 0.004 g/cm^2	1.27 ± 0.25 g	6.49 ± 1.03%	13.13 ± 1.08 cm^2	18.05 ± 0.44 g	0.20 ± 0.03 g	0.059 ± 0.009 g/cm^2	1.43 ± 0.53 g	7.31 ± 2.47%	13.83 ± 0.53 cm^2	18.34 ± 0.56 g	0.19 ± 0.04 g	0.056 ± 0.006 g/cm^2	significantly restored	significantly suppressed	significantly decreased	significantly decreased	significantly decreased	concentration of testosterone suppressed by hydrogen peroxide [5]: significantly restored; fat ([1]; Day 14): 1.29 ± 0.19 g; fat(%) ([1]; Day 14): 6.57 ± 0.76%; tissue area(cm^2) ([1]; Day 14): 13.66 ± 0.92 cm^2; body weight of the mice [1, 10]: restored; lean body weight of the mice [1, 10]: restored; tissue areas of the mice [1, 10]: restored; Thymus ([2]; excised tissue weight): 0.009 ± 0.002 g; Liver [2, 9]: 1.375 ± 0.117 g; Muscle [2, 9]: 0.683 ± 0.18 g; Spleen [2, 9]: 0.028 ± 0.009 g; weights of the various tissues ([2]; result in words): restored to levels similar to those of the normal control group
CC[C@H](C)[C@H](NCC1(O)OC[C@@H](O)[C@@H](O)[C@@H]1O)C(=O)O (stereo partly drawn) [FI, fructose-isoleucine]	–	–	–	–	–	–	–	–	–	–	–	–	–	–	–	significantly restored	significantly suppressed	significantly decreased	significantly decreased	significantly decreased	–
CC(C)[C@H](NCC1(O)OC[C@@H](O)[C@H](O)C1O)C(=O)O (stereo partly drawn) [FV, fructose-valine]	–	–	–	–	–	–	–	–	–	–	–	–	–	–	–	significantly restored	significantly suppressed	significantly decreased	significantly decreased	significantly decreased	–
